Values belong to the molecule of their own block, whether it stands above or below them.
Tests used:
[1] = tested on: monocytes; assay: Induction of IFN-regulated genes and TNFα in monocytes by aPL or Tlr7 agonist; type: cell-based, mouse
Protocol: (B) Induction of IFN-regulated genes by aPL. (C) TF and Tnfα mRNA induction by aPL HL5B or HL7G stimulation of CD115+ splenocytes of indicated mice stimulated for 3 hours, as well as early ROS production; mean±SD, n=6; * p<0.0001; one-way ANOVA, Dunnett multiple-comparison test. (D) Live cell imaging of HL5B internalization in monocytes of indicated mouse strains. Bar=5 μm. (E) Live cell imaging of aPL HL5B Fab′2 or IgG colocalization with EPCR using non-inhibitory αEPCR 1489 in human MM1 cells. (F) Internalization of EPCR, FVIIa, and TF in MM1 cells stimulated for 15 minutes similarly required proteases and integrin trafficking. For quantification of internalization, surface staining was quenched with 0.4% trypan blue; mean±SD, n=6. * p<0.0001; one-way ANOVA, Dunnett multiple-comparison test compared to IgG control.
FXa generated by the coagulation initiator TF-FVIIa utilizes the endothelial protein C receptor (EPCR) for protease activated receptor (PAR) 2 cleavage that is specifically required for LPS-induced interferon (IFN) responses (15, 16).

[2] = tested on: MM1 cells; assay: aPL signaling and internalization in MM1 cells with sphingomyelinase inhibitor; type: cell-based, human
Protocol: (A) aPL-mediated TF activation, PS exposure measured by annexin 5 staining, ROS production and TNFα induction as well as (B) aPL internalization in MM1 cells was blocked by sphingomyelinase inhibitor desipramine. Bar=5 μm. (C) aPL-induced ASM activity in MM1 cells is blocked by inhibitors of FXa, thrombin, and PAR1 cleavage. (D) Live cell imaging of surface ASM exposure in MM1 cells after 30 minutes of stimulation with Fab′2 aPL HLSB. Bar=5 μm. (E) ASM activity in unstimulated cell lysates after addition of sEPCR-LBPA (2.504) is blocked by αEPCR 1682. For all ASM activity assays: mean±SD, n=3. * p<0.0003; one-way ANOVA, Dunnett multiple-comparison test. […] (G, H) Thrombosis induction by dual reactive aPL HL7G in the indicated mouse strains or WT mice in presence of indicated αEPCR. (F-H) Quantification of thrombus size 3 hours after aPL injection; median, interquartile range, and range; n=6-11; * p <0.004; one-way ANOVA, Dunnett multiple-comparison test compared to αEPCR 1650. (I, J) Thrombosis induction by aPL HLSB (I) or IgG isolated from age-matched 16 weeks old lupus-prone MRL/lpr and MRL control mice (J) in the indicated mouse strains. Quantification of thrombus size 3 hours after aPL injection; median, interquartile range, and range; (I) n=6-10; * p=0.001; unpaired t-test. (J) n=5; * p=0.0025; two-way ANOVA, Sidak's multiple comparisons test. […]

[3] = tested on: ALIX^−/− trophoblast cells; assay: aPL HL5B binding to ALIX-deficient trophoblast (JAR) cells after adding phospholipids; type: cell-based, human; settings: 10 μM lipid added
Protocol: (§1) (A) TNFα mRNA induction after 2 hours by HLSB is prevented in Alix-deficient trophoblast cells; mean±SD, n=6. * p<0.0001; t-test following Shapiro-Wilk test for normal distribution. (B, C) Proximity ligation assays (PLA) for ASM and EPCR on scrambled control JARs or ALIX−/− cells after 10 minutes of stimulation with HLSB (B) or thrombin (C) with or without LBPA loading. Bar=25 μm. (D) aPL internalization in ALIX deficient JAR cells and signalling in EPCR^C/S monocytes (E) was restored by adding 10 μM LBPA (S,R) but not by other phospholipids. (F) Pregnancy loss was scored at day 15.5 p.c. after injection of aPL HLSB on days 8 and 12. * p<0.02; one-way ANOVA, Dunnett multiple-comparison test. (G) Schematic representation of aPL signalling leading to thrombosis or pregnancy complications.
Human ALIX^−/− trophoblast cells and murine EPCR^C/S monocytes provided tools to compare the species conservation of lipid presentation by EPCR. Only addition of S/R 18:1 LBPA and R/R 18:1 LBPA, but not S/S 18:1 LBPA or semi-S/R LBPA restored aPL HL5B binding to ALIX^−/− trophoblast cells (FIG. 7D) or signaling in EPCR^C/S monocytes (FIG. 7E). Thus, human and mouse EPCR present LBPA with the same selectivity, providing an explanation for the remarkable species cross-reactivity of pathogenic aPL.

[4] = tested on: EPCR^C/S monocytes; assay: Lipid supplementation and aPL signalling in EPCR^C/S monocytes; type: cell-based, mouse; settings: for aPL signaling in EPCR^C/S monocytes after adding LBPA isomers: 10 μM
From the text: (§2) (A) Effect of aPL HL5B, aPL HL7G, and αEPCR antibodies on EPCR-dependent aPC generation on murine microvascular endothelial cells. (B) Effect of anti-mouse EPCR antibodies 1682 and 1650 on Tnfα mRNA induction by aPL HL5B and HL7G; mean±SD, n=6. * p<0.0001; one-way ANOVA, Dunnett multiple-comparison. (C) Effect of αEPCR on aPL HL5B and HL7G internalization in CD115+ splenocytes. Bar=5 μm. (D) Flow cytometry detection of FXa and EPCR on CD115+ spleen monocytes isolated from indicated mouse strains. (E) Effect of pre-treatment with 10 μM LBPA for 10 min on surface binding of αEPCR 1682 and αLBPA 6C4 on indicated monocytes; mean±SD, n=6. * p<0.003; multiple t-tests. (F) Competition of αEPCR 1650 and 1682 with binding of FITC-labelled anti-LBPA antibody 6C4 to mouse CD115+ splenocytes. (G) Competition of αLBPA 6C4 with binding of αEPCR 1682 to mouse monocytes. (H) Effect of LBPA, cardiolipin (CL), and phosphatidylserine (PS) (10 μM) on aPL HLSB signalling in EPCR^C/S monocytes. Induction of TNF after 3 hours is shown; mean±SD, n=6. (I) LBPA loading of purified mouse or human sEPCR evidenced by faster mobility on native gels. (J) Surface plasmon resonance analysis of aPL HLSB binding to purified human sEPCR or sEPCR-LBPA. The affinity calculation was based on a monovalent binding model because no cooperative binding was evident.
as §1, with “(G) Schematic representation of aPL signalling leading to thrombosis or pregnancy complications.” left out

[5] = tested on: EPCR^C/S pDC; assay: Mouse pDC and B cell co-culture with R848 and aPL HL5B, anti-cardiolipin titers; type: cell-based; settings: co-cultures with EPCR^C/S pDC
Protocol: (§3) (A) Gbp2 mRNA induction after 1 hour stimulation with HL5B, HL7G, or LPS (100 ng/ml) in EPCR^C/S or WT monocytes with or without addition of LBPA. (B) WT monocytes were stimulated for 1 hour with IgG isolated from MRL/lpr lupus-prone or control MRL mice in the presence of the indicated antibodies to EPCR. (C) Human monocyte-derived DC were co-cultured with B cells in the presence of TLR7/8 agonist R848 and aPL HL5B with the indicated antibodies to human EPCR. Anti-cardiolipin titers were determined after 10 days. (D-F) Co-cultures of isolated spleen plasmacytoid dendritic cells (pDC) and B cells from the indicated mouse strains were co-cultured with Tlr7 agonist R848 and aPL HL5B for 10 days, followed by determination of anti-cardiolipin titers. IFNR^−/−, type I interferon receptor deficient mice.
Supporting this conclusion, anti-cardiolipin antibody production was absent when mouse pDC, but not B cells, were isolated from EPCR^C/S mice (FIG. 9D). Addition of LBPA or interferon a restored the expansion of anti-cardiolipin producing B cells in co-cultures with aPL signaling-deficient EPCR^C/S pDC (FIG. 9D). In contrast, cells deficient in LRP8, the receptor for β2GPI, produced anti-cardiolipin antibodies normally in response to co-stimulation of aPL and Tlr7 agonist (FIG. 9E).

[6] = target: T1, LBPA-loaded EPCR (Mus musculus, UniProt Q64695, C242S); assay: Flow cytometry surface staining of monocytes with αEPCR 1682 and αLBPA 6C4; type: binding; settings: LBPA added to culture medium, 10 μM, 10 min
T1 construct: endogenous in cells; host or cells: mouse CD115+ spleen monocytes; murine microvascular endothelial cells
T1 sequence (Q64695 18-242 C242S): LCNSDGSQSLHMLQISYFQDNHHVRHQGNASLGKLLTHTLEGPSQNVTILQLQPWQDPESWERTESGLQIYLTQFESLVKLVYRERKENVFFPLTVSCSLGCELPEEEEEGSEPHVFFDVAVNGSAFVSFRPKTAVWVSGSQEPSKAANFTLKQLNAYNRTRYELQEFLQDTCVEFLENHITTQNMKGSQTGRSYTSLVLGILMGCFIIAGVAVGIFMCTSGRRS
From the text: as §2, with “evident. […]” for “evident.”

[7] = tested on: acidic sphingomyelinase (ASM); assay: ASM activity in CD115+ spleen monocytes stimulated with aPL HLSB; type: cell-based, mouse; settings: EPCR^C/S monocytes, LBPA 10 μM
Protocol: (A) WT CD115+ spleen monocyte induction of ASM activity after 15 minutes aPL HLSB stimulation with the indicated inhibitors. (B) LBPA (10 μM) loading of EPCR^C/S cells enabled ASM activation in CD115+ monocytes stimulated with HLSB.
ASM requires LBPA for activity (33). […] Thrombin stimulation to induce ASM surface expression was sufficient to trigger ASM activation that was blocked by extracellular addition of αEPCR-LBPA 1682 (FIG. 6C). TfpiΔK1 cells expressed LBPA-loaded EPCR (FIG. 3D), but lack surface FXa to trigger thrombin generation. […] In turn, ASM modification of surface lipid modification is required for endosomal trafficking and signaling of EPCR-bound aPL.

[8] = tested on: EPCR^C/S monocytes; assay: Gbp2 mRNA induction by aPL in EPCR^C/S monocytes; type: cell-based, mouse; settings: 1 hour stimulation with aPL
Protocol: as §3
Further, it was investigated whether the identified target for lipid-reactive aPL contributes to the development of autoimmunity. Upregulation of interferon responses in circulating immune cells are linked to the development of APS (38, 39). […] In addition, IgG isolated from MRL/lpr lupus erythematosus mice, but not MRL control mice induced interferon responses dependent on EPCR-LPBA in monocytes (FIG. 9B).

[9] = tested on: human trophoblast cells; assay: TNFα mRNA induction by HLSB in ALIX knock-down trophoblast cells; type: cell-based; settings: extracellular LBPA supplemented
Protocol: as §1
The importance of this pathway in human trophoblast cells by knock-down of ALIX (FIG. 8A) was evaluated, which is required for normal lysosomal functioning. ALIX knock-down diminished LBPA cell surface presentation, but not EPCR expression (FIG. 8B) and abolished aPL-induced, but not TNFα-induced proinflammatory effects.

[10] = tested on: acidic sphingomyelinase (ASM); assay: ASM activity in unstimulated cell lysates after addition of sEPCR-LBPA; type: biochemical
Protocol: (A) aPL-mediated TF activation, PS exposure measured by annexin 5 staining, ROS production and TNFα induction as well as (B) aPL internalization in MM1 cells was blocked by sphingomyelinase inhibitor desipramine. Bar=5 μm. (C) aPL-induced ASM activity in MM1 cells is blocked by inhibitors of FXa, thrombin, and PAR1 cleavage. (D) Live cell imaging of surface ASM exposure in MM1 cells after 30 minutes of stimulation with Fab′2 aPL HLSB. Bar=5 μm. (E) ASM activity in unstimulated cell lysates after addition of sEPCR-LBPA (2.504) is blocked by αEPCR 1682. For all ASM activity assays: mean±SD, n=3. * p<0.0003; one-way ANOVA, Dunnett multiple-comparison test. […] (G, H) Thrombosis induction by dual reactive aPL HL7G in the indicated mouse strains or WT mice in presence of indicated αEPCR. (F-H) Quantification of thrombus size 3 hours after aPL injection; median, interquartile range, and range; n=6-11; * p <0.004; one-way ANOVA, Dunnett multiple-comparison test compared to αEPCR 1650. (I, J) Thrombosis induction by aPL HLSB (I) or IgG isolated from age-matched 16 weeks old lupus-prone MRL/lpr and MRL control mice (J) in the indicated mouse strains. Quantification of thrombus size 3 hours after aPL injection; median, interquartile range, and range; (I) n=6-10; * p=0.001; unpaired t-test. (J) n=5; * p=0.0025; two-way ANOVA, Sidak's multiple comparisons test.
ASM requires LBPA for activity (33). […]

Molecule: CCOCc1nc2c(N)nc3ccccc3c2n1CC(C)(C)O [R848]
induction of TNFα [1]: upregulated only TNFα

Molecule: CNCCCN1c2ccccc2CCc2ccccc21 [desipramine]
aPL internalization [2]: blocked
aPL-mediated TF activation, PS exposure, ROS production and TNFα induction [2]: blocked

Molecule: R/R 18:1 LBPA
aPL HL5B binding to ALIX^−/− trophoblast cells [3]: restored
aPL signaling in EPCR^C/S monocytes after adding LBPA isomers [4]: restored

Molecule: S/R 18:1 LBPA
aPL HL5B binding to ALIX^−/− trophoblast cells [3]: restored
aPL signaling in EPCR^C/S monocytes after adding LBPA isomers [4]: restored

Molecule: interferon a
expansion of anti-cardiolipin producing B cells [5]: restored

cell surface αLBPA 6C4 and αEPCR 1682 staining of EPCR^C/S cells [6]: restored
ASM activation by aPL after extracellular addition of LBPA [7]: restored ASM activation
Molecule: lysobisphosphatidic acid [LBPA]
expansion of anti-cardiolipin producing B cells [5]: restored
interferon responses (GBP2) in EPCR^C/S monocytes [8]: restored interferon responses
aPL pro-inflammatory signaling of EPCR^C/S cells after lipid supplementation ([4]; 10 μM lipid, TNF induction after 3 hours): restored aPL pro-inflammatory signaling
aPL signaling in ALIX knock-down trophoblast cells [9]: restored aPL signaling

B1: EPCR-LBPA: purified soluble EPCR loaded with LBPA by lipid exchange (protein, UniProt Q9UNN8 18-210, looked up)
extracellular domain: SQDASDGLQRLHMLQISYFRDPYHVWYQGNASLGGHLTHVLEGPDTNTTIIQLQPLQEPESWARTQSGLQSYLLQFHGLVRLVHQERTLAFPLTIRCFLGCELPPEGSRAHVFFEVAVNGSSFVSFRPERALWQADTQVTSGVVTFTLQQLNAYNRTRYELREFLEDTCVQYVQKHISAENTKGSQTSRSYTS
modifications: extracellular domain loaded with LBPA lipid
notes: purified soluble EPCR loaded with LBPA by lipid exchange
induction of ASM activity in cell lysates of unstimulated cells [10]: efficiently induced ASM activity
